Assay [1] concerns Hedgehog pathway activation on 10T1/2/Smo#3 cells (C3H10T1/2 cells transfected with human Smoothened receptor). Kind of assay: Hedgehog pathway activation on 10T1/2/Smo#3 cells measured by ALP activity. It is filed as cell-based. Conditions: Mus musculus, C3H 10T1/2, 10T1/2/Smo#3 cells. Summed up: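 Inhibition of alkaline phosphatase induction, read fluorometrically from 4-methylumbelliferyl phosphate conversion, gave IC50 values; CellTiter-Blue tracked viability in parallel. Cells were the human Smo-transfected 10T1/2/Smo#3 pool, stimulated by 10-20% hShh conditioned medium or the Smo agonist SAG (500 nM).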

In assay [2] the test system is Hedgehog pathway activation (GLi-luciferase reporter) in Shh Light II reporter cells. Kind of assay: Hedgehog pathway activation on Shh Light II reporter cells measured by luciferase activity. Type of assay: cell-based. The conditions noted are these: Mus musculus, Shh Light II. Summed up:
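Shh Light II reporter cells carrying a hedgehog-responsive GLi-luciferase reporter were stimulated either with 500 nM SAG, a direct Smoothened agonist, or with conditioned media containing human Sonic Hedgehog (hShh). Test compounds were evaluated for blocking this pathway activation, quantified by luciferase activity. Cell viability was monitored in parallel with the Celltiter-Blue® assay.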

[3] abbreviates: measured by ALP activity, read-out: ALP (IC50, inhibition of Hedgehog pathway activation).
Where [4] appears, read: hShh activation, read-out: Shh (IC50, inhibition of Hedgehog pathway activation).
The mark [5] stands for this setting: hShh activation, ALP activity, read-out: 10T1/2/Smo#3 ALP activity (hShh Activation).
[6] abbreviates: SAG activation (500 nM SAG), read-out: Shh Light II luciferase activity (SAG activation).
Setting [7] is: hShh activation, read-out: Shh Light II luciferase activity (hShh activation).

pIC50: −log10 of the molar value. Like-named read-outs stand apart in the source and are kept apart here.

For `CC(C)Oc1ccc2nc(-c3ccc(C(F)(F)F)c(NC(=O)C(C)(C)C)c3)cn2n1` [Example 181, N-(5-(6-isopropoxyimidazo[1,2-b]pyridazin-2-yl)-2-(trifluoromethyl)phenyl)pivalamide], the figures for the pIC50 in assay [1] (setting [3]) and in assay [2] (setting [4]) were 5.97 and 6.61, respectively.

Turning to `Cc1ccc2nc(-c3ccc(C(F)(F)F)c(NC(=O)C(C)(C)C)c3)cn2n1` [Example 142, N-(5-(6-methylimidazo[1,2-b]pyridazin-2-yl)-2-(trifluoromethyl)phenyl)pivalamide], the pIC50 in assay [1] (setting [3]) is 6.44; in assay [2] (setting [4]) it was 5.85.

As to `CC(C)(C)C(=O)Nc1cc(-c2cn3nc(-c4ccccc4C(F)(F)F)ccc3n2)ccc1C#N` [Example 225, N-(2-cyano-5-(6-(2-(trifluoromethyl)phenyl)imidazo[1,2-b]pyridazin-2-yl)phenyl)pivalamide], the pIC50 in assay [1] (setting [5]) is more than 6.52; in assay [1] (setting [3]) it was 7.19; in assay [2] (setting [6]), 4.52 to 5.52; in assay [2] (setting [4]), 7.32; in assay [2] (setting [7]) it was more than 6.52.

With `Cc1ccc(-c2cn3nc(-c4ccc(NC(=O)CCCCCCC(=O)NOC5CCCCO5)cc4)ccc3n2)cc1NC(=O)C(C)(C)C` (centres unmarked) [compound 562], the pIC50 is 6.12 in assay [1] (setting [3]) and 6.42 in assay [2] (setting [4]).

As to `CC(C)(C)C(=O)Nc1cc(-c2cn3nc(-c4ccncc4)ccc3n2)ccc1C(F)(F)F` [Example 169, N-(5-(6-(pyridin-4-yl)imidazo[1,2-b]pyridazin-2-yl)-2-(trifluoromethyl)phenyl)pivalamide], the pIC50 is 6.37 in assay [1] (setting [3]) and 6.15 in assay [2] (setting [4]).

As to `CN1CCC(Oc2ccc3nc(-c4ccc(C(F)(F)F)c(NC(=O)C(C)(C)C)c4)cn3n2)CC1` [Example 305, N-(5-(6-(1-methylpiperidin-4-yloxy)imidazo[1,2-b]pyridazin-2-yl)-2-(trifluoromethyl)phenyl)pivalamide], the pIC50 was 5.46 in assay [1] (setting [3]) and 5.72 in assay [2] (setting [4]).

Regarding `Cc1cc(Cl)c(-c2cn3nc(N4CC[C@@H](O)C4)ccc3n2)cc1NC(=O)C(C)(C)C` [Example 640, (R)—N-(4-chloro-5-(6-(3-hydroxypyrrolidin-1-yl)imidazo[1,2-b]pyridazin-2-yl)-2-methylphenyl)pivalamide], the pIC50 in assay [1] (setting [3]) is 6.86; in assay [2] (setting [4]), 6.97.

As for `CC1(C(=O)Nc2cc(-c3cn4nc(-c5cccnc5C(F)(F)F)ccc4n3)ccc2Cl)CC1` [Example 653, N-(2-chloro-5-(6-(2-(trifluoromethyl)pyridin-3-yl)imidazo[1,2-b]pyridazin-2-yl)phenyl)-1-methylcyclopropanecarboxamide], the pIC50 in assay [1] (setting [3]) is 7.10; in assay [2] (setting [4]), 8.00.

Regarding `Cc1c(-c2ccccc2)nc2ccc(N3CCN(Cc4ccncc4)CC3)nn12` [Example 162, 3-methyl-2-phenyl-6-(4-(pyridin-4-ylmethyl)piperazin-1-yl)imidazo[1,2-b]pyridazine], the pIC50 is 5.95 in assay [1] (setting [3]) and 5.86 in assay [2] (setting [4]).

Regarding `CCOC(=O)CCCOc1ccc(-c2ccc3nc(-c4ccc(C)c(NC(=O)C(C)(C)C)c4)cn3n2)c(C(F)(F)F)c1` [Example 428, ethyl 4-(4-(2-(4-methyl-3-pivalamidophenyl)imidazo[1,2-b]pyridazin-6-yl)-3-(trifluoromethyl)phenoxy)butanoate], the pIC50 was 6.13 in assay [1] (setting [3]) and 7.11 in assay [2] (setting [4]).

`Cc1ccc(-c2nc3ccc(Cl)nn3c2C)cc1NC(=O)C(C)(C)C` [Example 311, N-(5-(6-chloro-3-methylimidazo[1,2-b]pyridazin-2-yl)-2-methylphenyl)pivalamide]: the pIC50 in assay [1] (setting [3]) is 5.62; in assay [2] (setting [4]), 5.68.

Turning to `CC(C)(C)C(=O)Nc1cc(-c2cn3nc(Cl)ccc3n2)ccc1C(F)(F)F` [Example 126, N-(5-(6-chloroimidazo[1,2-b]pyridazin-2-yl)-2-(trifluoromethyl)phenyl)pivalamide], the figures for the pIC50 in assay [1] (setting [3]) and in assay [2] (setting [4]) were 5.25 and 5.11, respectively.

On to `Cc1cc(C)c(-c2cn3ncccc3n2)cc1NC(=O)C(C)(C)C` [Example 107, N-(5-(imidazo[1,2-b]pyridazin-2-yl)-2,4-dimethylphenyl)pivalamide], for which the pIC50 is 5.14 in assay [1] (setting [3]) and 5.56 in assay [2] (setting [4]).

For `Cc1ccc(-c2cn3nc(-c4cnccc4C(F)(F)F)ccc3n2)cc1NC(=O)C(C)(C)C` [Example 364, N-(2-methyl-5-(6-(4-(trifluoromethyl)pyridin-3-yl)imidazo[1,2-b]pyridazin-2-yl)phenyl)pivalamide], the pIC50 was 9.00 in assay [1] (setting [3]) and 8.52 in assay [2] (setting [4]).

As to `CC(C)(C)C(=O)Nc1cc(-c2cn3nc(N4CCC[C@@H](O)C4)ccc3n2)ccc1C(F)(F)F` [Example 357, (R)-N-(5-(6-(3-hydroxypiperidin-1-yl)imidazo[1,2-b]pyridazin-2-yl)-2-(trifluoromethyl)phenyl)pivalamide], the pIC50 in assay [1] (setting [3]) is 6.35; in assay [2] (setting [4]) it was 6.82.

Regarding `NS(=O)(=O)c1cc(-c2cn3nc(-c4cccnc4C(F)(F)F)ccc3n2)ccc1Cl` [Example 697, 2-chloro-5-(6-(2-(trifluoromethyl)pyridin-3-yl)imidazo[1,2-b]pyridazin-2-yl)benzenesulfonamide], the pIC50 in assay [1] (setting [3]) and in assay [2] (setting [4]) was less than 5.00 in each case.

As to `Cc1ccc(-c2cn3nc(-c4ncccc4C(F)(F)F)ccc3n2)cc1NC(=O)C(C)(C)C` [Example 400, N-(2-methyl-5-(6-(3-(trifluoromethyl)pyridin-2-yl)imidazo[1,2-b]pyridazin-2-yl)phenyl)pivalamide], the pIC50 in assay [1] (setting [5]) was more than 6.52; in assay [1] (setting [3]), 7.41; in assay [2] (setting [6]), more than 6.52; in assay [2] (setting [4]), 7.96; in assay [2] (setting [7]) it was more than 6.52.

Take `COc1ccc2nc(-c3cc(NC(=O)C4CC4)ccc3Cl)cn2n1` [Example 116, N-(4-chloro-3-(6-methoxyimidazo[1,2-b]pyridazin-2-yl)phenyl)cyclopropanecarboxamide]: the results for the pIC50 in assay [1] (setting [3]) and in assay [2] (setting [4]) were less than 5.00 and 5.02, respectively.

Consider `Cc1cccc(-c2ccc3nc(-c4ccc(C(F)(F)F)c(NC(=O)C(C)(C)C)c4)cn3n2)n1` [Example 149, N-(5-(6-(6-methylpyridin-2-yl)imidazo[1,2-b]pyridazin-2-yl)-2-(trifluoromethyl)phenyl)pivalamide], for which the pIC50 in assay [1] (setting [5]) is 5.52 to 6.52; in assay [1] (setting [3]), 5.76; in assay [2] (setting [6]) it was 5.52 to 6.52; in assay [2] (setting [4]) it was 5.99; in assay [2] (setting [7]), 5.52 to 6.52.

`O=C(Nc1cc(-c2cn3nc(-c4cccnc4C(F)(F)F)ccc3n2)ccc1F)C1CCCC1` [Example 678, N-(2-fluoro-5-(6-(2-(trifluoromethyl)pyridin-3-yl)imidazo[1,2-b]pyridazin-2-yl)phenyl)cyclopentanecarboxamide]: the values for the pIC50 in assay [1] (setting [3]) and in assay [2] (setting [4]) were 6.47 and 6.86, respectively.

In the case of `CC(C)c1ccc2nc(-c3ccc(C(F)(F)F)c(NC(=O)C(C)(C)C)c3)cn2n1` [Example 140, N-(5-(6-isopropylimidazo[1,2-b]pyridazin-2-yl)-2-(trifluoromethyl)phenyl)pivalamide], the pIC50 in assay [1] (setting [3]) was 6.50; in assay [2] (setting [4]), 6.14.

`O=C(Nc1cc(-c2cn3nc(-c4cccnc4C(F)(F)F)ccc3n2)ccc1Cl)NC1CC1` [Example 654, 1-(2-chloro-5-(6-(2-(trifluoromethyl)pyridin-3-yl)imidazo[1,2-b]pyridazin-2-yl)phenyl)-3-cyclopropylurea]: the pIC50 in assay [1] (setting [3]) is 6.12; in assay [2] (setting [4]) it was 6.64.

Source of the values: patent US8871767B2, “2-arylimidazo[1,2-B]pyridazine, 2-phenylimidazo[1,2-A]pyridine, and 2-phenylimidazo[1,2-A]pyrazine derivatives” (Hengrui (USA) Ltd., priority 2010, dated 2014).
